Data as given in patent EP0973746B1, “SUBSTITUTED 3-CYANO QUINOLINES” (Wyeth Holdings Corporation, priority 1997, dated 1998).
Values after ≈ are worked out from the molar mass of the structure shown.

Legend:
[1] = test system: A431; test: Inhibition of cell growth by incorporation of [3H]-thymidine, A431; type: cell-based, human; details: Homo sapiens, A-431; [3H]-thymidine incorporation; A431; read-out: IC50 A431
Experimental: (§1) Representative compounds of this invention were evaluated for their ability to inhibit the growth of the cell lines described below in vitro. The inhibition is quantitated by measuring the decrease in the incorporation of radio-labeled thymidine when the cells are grown in the presence of the inhibitor. […] Cells were routinely grown in a humidified incubator in 5% CO2 in air.
(§2) Cells were seeded at 10,000 cells/well in 96 well plates in complete media and allowed to grow to log phase. At this stage the complete media was replaced with media containing 0.5% FBS (for cells growing in 10% FBS) or media lacking epidermal growth factor (EGF) (for cells growing in serum free media). […] Media with test compound was then removed and complete media was added back. The cells were allowed to grow for 18 hours. This is followed by incubation in [^3H]thymidine (1mCi/ml in serum/EGF media) for 4 hours. Cells were lysed in 0.5 M NaOH for at least 30 min at 37°C and radioactivity analyzed.
(§3) The % inhibition of the compound evaluated was determined for at least three different concentrations and the IC50 value evaluated from the dose response curve. […] CPM(control) is in units of counts per minute and is a number expressing the amount of [^3H]thymidine incorporated onto the DNA when cells are grown in the absence of test compound as measured by liquid scintillation counting.

[2] = test system: NEU-3T3; test: Inhibition of cell growth by incorporation of [3H]-thymidine, Neu-3T3; type: cell-based, mouse; details: Mus musculus, [3H]-thymidine incorporation
Experimental: as §1, §2, §3

[3] = test system: NHEK; test: Inhibition of cell growth by incorporation of [3H]-thymidine, NHEK; type: cell-based, human; details: Homo sapiens, [3H]-thymidine incorporation, read-out: IC50 NHEK
[4] = test system: SKBR3; test: Inhibition of cell growth by incorporation of [3H]-thymidine, SKBR3; type: cell-based, human; details: Homo sapiens, SK-BR-3, [3H]-thymidine incorporation
Experimental: as §1, §2, §3

[5] = test system: HTB161; test: Inhibition of cancer cell growth as measured by cell number, HTB161; type: cell-based; details: Homo sapiens; cell number, Sulforhodamine B, 48 hours exposure; Table 4; read-out: IC50 HTB161
[6] = test system: A27805; test: Inhibition of cancer cell growth as measured by cell number, A27805; type: cell-based; details: Homo sapiens; cell number, Sulforhodamine B, 48 hours exposure; Table 4; read-out: IC50 A27805
[7] = test system: A2780DDP; test: Inhibition of cancer cell growth as measured by cell number, A2780DDP; type: cell-based; details: Homo sapiens; cell number, Sulforhodamine B, 48 hours exposure; Table 4; read-out: IC50 A2780DDP
[8] = test system: MIP; test: Inhibition of cancer cell growth as measured by cell number, MIP; type: cell-based; details: Homo sapiens; cell number, Sulforhodamine B, 48 hours exposure; Table 4; read-out: IC50 MIP
[9] = test system: SW620; test: Inhibition of cancer cell growth as measured by cell number, SW620; type: cell-based, human; details: Homo sapiens, SW-620, 48 h, cell number, Sulforhodamine B, 48 hours exposure; Table 4; read-out: IC50 SW620;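 also: SW620 was included as a cell line with little or no EGFR or HER2/neu expression, in contrast to receptor-overexpressing lines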
Text: (§4) The cell lines were chosen since they overexpressed epidermal growth factor receptor (EGFR) (i.e. A431) or HER2/neu (SKBR3), or had little to no expression of the these receptors (SW620, LOX, MCF7).

[10] = test system: COLO205; test: Inhibition of cancer cell growth as measured by cell number, COLO205; type: cell-based; details: Homo sapiens, COLO 205; cell number, Sulforhodamine B, 48 hours exposure; Table 4; read-out: IC50 COLO205
[11] = test system: CX1; test: Inhibition of cancer cell growth as measured by cell number, CX1; type: cell-based; details: Homo sapiens, CX-1; cell number, Sulforhodamine B, 48 hours exposure; Table 4; read-out: IC50 CX1
[12] = test system: CACO2; test: Inhibition of cancer cell growth as measured by cell number, CACO2; type: cell-based; details: Homo sapiens, Caco-2; cell number, Sulforhodamine B, 48 hours exposure; Table 5; read-out: IC50 CACO2
[13] = test system: HCT15; test: Inhibition of cancer cell growth as measured by cell number, HCT15; type: cell-based; details: Homo sapiens, HCT-15; cell number, Sulforhodamine B, 48 hours exposure; Table 5; read-out: IC50 HCT15
[14] = test system: LS174T; test: Inhibition of cancer cell growth as measured by cell number, LS174T; type: cell-based; details: Homo sapiens, cell number, Sulforhodamine B, 48 hours exposure, Table 5, read-out: IC50 LS174T
[15] = test system: SW948; test: Inhibition of cancer cell growth as measured by cell number, SW948; type: cell-based; details: Homo sapiens, SW948; cell number, Sulforhodamine B, 48 hours exposure; Table 5; read-out: IC50 SW948
[16] = test system: CCL228; test: Inhibition of cancer cell growth as measured by cell number, CCL228; type: cell-based; details: Homo sapiens; cell number, Sulforhodamine B, 48 hours exposure; Table 5; read-out: IC50 CCL228
[17] = test system: B7474; test: Inhibition of cancer cell growth as measured by cell number, B7474; type: cell-based; details: Homo sapiens; cell number, Sulforhodamine B, 48 hours exposure; Table 6; read-out: IC50 B7474
[18] = test system: T47D; test: Inhibition of cancer cell growth as measured by cell number, T47D; type: cell-based; details: Homo sapiens, cell number, Sulforhodamine B, 48 hours exposure, Table 6, read-out: IC50 T47D
[19] = test system: LX1; test: Inhibition of cancer cell growth as measured by cell number, LX1; type: cell-based; details: Homo sapiens, LX-1; cell number, Sulforhodamine B, 48 hours exposure; Table 6; read-out: IC50 LX1
[20] = test system: A549; test: Inhibition of cancer cell growth as measured by cell number, A549; type: cell-based; details: Homo sapiens, A549; cell number, Sulforhodamine B, 48 hours exposure; Table 6; read-out: IC50 A549
[21] = test system: LOX; test: Inhibition of cancer cell growth as measured by cell number, LOX; type: cell-based, human; details: Homo sapiens, LOX, 48 h, cell number, Sulforhodamine B, 48 hours exposure; Table 6; read-out: IC50 LOX;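 also: LOX cells served as a line with low or absent EGFR and HER2/neu expression, in contrast to receptor-overexpressing lines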
Text: as §4

[22] = test system: A431; test: Inhibition of cancer cell growth as measured by cell number, A431; type: cell-based, human; details: Homo sapiens, A-431, 48 h, cell number, Sulforhodamine B, 48 hours exposure; Table 6; read-out: IC50 A431;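 also: human A431 line, picked because it overexpresses epidermal growth factor receptor (EGFR)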
Text: as §4

[23] = test system: NEC; test: Inhibition of cancer cell growth as measured by cell number, NEC; type: cell-based; details: Homo sapiens; cell number, Sulforhodamine B, 48 hours exposure; Table 6; read-out: IC50 NEC
[24] = test system: DU145; test: Inhibition of cancer cell growth as measured by cell number, DU145; type: cell-based; details: Homo sapiens, DU-145; cell number, Sulforhodamine B, 48 hours exposure; Table 7; read-out: IC50 DU145
[25] = test system: PC3; test: Inhibition of cancer cell growth as measured by cell number, PC3; type: cell-based; details: Homo sapiens, PC-3; cell number, Sulforhodamine B, 48 hours exposure; Table 7; read-out: IC50 PC3
[26] = test system: LNCAP; test: Inhibition of cancer cell growth as measured by cell number, LNCAP; type: cell-based; details: Homo sapiens, cell number, Sulforhodamine B, 48 hours exposure, Table 7, read-out: IC50 LNCAP
[27] = test system: HL60; test: Inhibition of cancer cell growth as measured by cell number, HL60; type: cell-based; details: Homo sapiens, HL-60; cell number, Sulforhodamine B, 48 hours exposure; Table 7; read-out: IC50 HL60
[28] = test system: CCRF-CFM; test: Inhibition of cancer cell growth as measured by cell number, CCRF-CFM; type: cell-based; details: Homo sapiens; cell number, Sulforhodamine B, 48 hours exposure; Table 7; read-out: IC50 CCRF-CFM
[29] = biological target: epidermal growth factor receptor kinase (Homo sapiens, UniProt P00533); test: biochemical
Sequence of epidermal growth factor receptor kinase (P00533 25-1210): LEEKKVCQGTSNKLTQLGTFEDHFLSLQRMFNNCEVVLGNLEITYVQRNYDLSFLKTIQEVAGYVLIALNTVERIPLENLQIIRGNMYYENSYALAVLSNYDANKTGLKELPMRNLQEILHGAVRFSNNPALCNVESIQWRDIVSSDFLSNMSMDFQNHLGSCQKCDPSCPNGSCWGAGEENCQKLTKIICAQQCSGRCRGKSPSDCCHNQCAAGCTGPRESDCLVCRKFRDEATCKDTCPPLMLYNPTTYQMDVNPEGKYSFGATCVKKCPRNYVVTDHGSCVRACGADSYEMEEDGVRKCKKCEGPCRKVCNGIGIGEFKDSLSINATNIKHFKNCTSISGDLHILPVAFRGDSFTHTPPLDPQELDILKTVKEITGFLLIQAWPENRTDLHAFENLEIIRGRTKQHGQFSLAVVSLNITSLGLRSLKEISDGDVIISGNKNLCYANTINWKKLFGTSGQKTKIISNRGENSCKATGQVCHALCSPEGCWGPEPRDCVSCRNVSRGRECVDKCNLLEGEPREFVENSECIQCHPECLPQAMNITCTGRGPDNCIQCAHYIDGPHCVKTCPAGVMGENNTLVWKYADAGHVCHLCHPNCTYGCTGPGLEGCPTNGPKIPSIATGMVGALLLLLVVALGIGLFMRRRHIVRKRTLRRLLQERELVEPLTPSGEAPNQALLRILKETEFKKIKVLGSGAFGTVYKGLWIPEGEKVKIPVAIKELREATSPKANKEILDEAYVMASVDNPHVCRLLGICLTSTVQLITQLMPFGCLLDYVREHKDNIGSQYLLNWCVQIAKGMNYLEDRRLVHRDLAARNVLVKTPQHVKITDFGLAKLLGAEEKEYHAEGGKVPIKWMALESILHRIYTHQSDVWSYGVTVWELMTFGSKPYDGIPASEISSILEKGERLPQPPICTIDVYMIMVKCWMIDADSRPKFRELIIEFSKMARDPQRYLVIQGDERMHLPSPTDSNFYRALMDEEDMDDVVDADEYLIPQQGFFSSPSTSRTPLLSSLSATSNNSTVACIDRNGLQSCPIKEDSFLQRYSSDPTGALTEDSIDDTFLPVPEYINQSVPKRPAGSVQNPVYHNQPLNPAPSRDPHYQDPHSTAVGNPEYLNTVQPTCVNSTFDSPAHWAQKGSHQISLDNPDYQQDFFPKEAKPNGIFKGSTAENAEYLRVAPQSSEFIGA

## CC#CC(=O)Nc1ccc2ncc(C#N)c(Nc3ccc(Br)c(Br)c3)c2c1 [Example 22, N-[4-[(3,4-dibromophenyl)amino]-3-cyano-6-quinolinyl]-2-butynamide]
[1]
  IC50: 150 nM
[2]
  IC50: > 50000 nM
[3]
  IC50: 35 nM
[4]
  IC50: > 50000 nM
[5]
  IC50: 0.248 µg/mL (≈ 0.512 µM)
[6]
  IC50: 0.0567 µg/mL (≈ 0.117 µM)
[7]
  IC50: 0.211 µg/mL (≈ 0.436 µM)
[8]
  IC50: 0.378 µg/mL (≈ 0.782 µM)
[9]
  IC50: 0.526 µg/mL (≈ 1.09 µM)
[10]
  IC50: 4.3 µg/mL (≈ 8.89 µM)
[11]
  IC50: 0.775 µg/mL (≈ 1.6 µM)
[12]
  IC50: 0.475 µg/mL (≈ 0.982 µM)
[13]
  IC50: 0.372 µg/mL (≈ 0.769 µM)
[14]
  IC50: 0.847 µg/mL (≈ 1.75 µM)
[15]
  IC50: 0.593 µg/mL (≈ 1.23 µM)
[16]
  IC50: 0.255 µg/mL (≈ 0.527 µM)
[17]
  IC50: 0.314 µg/mL (≈ 0.648 µM)
[18]
  IC50: 0.704 µg/mL (≈ 1.45 µM)
[19]
  IC50: 0.81 µg/mL (≈ 1.67 µM)
[20]
  IC50: 0.375 µg/mL (≈ 0.775 µM)
[21]
  IC50: 0.0225 µg/mL (≈ 0.0465 µM)
[22]
  IC50: 0.0443 µg/mL (≈ 0.0915 µM)
[23]
  IC50: 0.492 µg/mL (≈ 1.02 µM)
[24]
  IC50: 0.265 µg/mL (≈ 0.548 µM)
[25]
  IC50: 0.695 µg/mL (≈ 1.44 µM)
[26]
  IC50: 0.722 µg/mL (≈ 1.49 µM)
[27]
  IC50: 0.608 µg/mL (≈ 1.26 µM)
[28]
  IC50: 0.403 µg/mL (≈ 0.833 µM)
[29]
  IC50: 3000 nM
